In test [1] the target is T1, endothelin receptor (smooth muscle A7r5 cells derived from rat aorta) (Rattus norvegicus, UniProt P26684).
T1 construct: Smooth muscle A7r5 cells derived from rat aorta; endogenous in cells; host or cells: A7r5 (rat aortic smooth muscle)
T1 sequence (P26684 21-426): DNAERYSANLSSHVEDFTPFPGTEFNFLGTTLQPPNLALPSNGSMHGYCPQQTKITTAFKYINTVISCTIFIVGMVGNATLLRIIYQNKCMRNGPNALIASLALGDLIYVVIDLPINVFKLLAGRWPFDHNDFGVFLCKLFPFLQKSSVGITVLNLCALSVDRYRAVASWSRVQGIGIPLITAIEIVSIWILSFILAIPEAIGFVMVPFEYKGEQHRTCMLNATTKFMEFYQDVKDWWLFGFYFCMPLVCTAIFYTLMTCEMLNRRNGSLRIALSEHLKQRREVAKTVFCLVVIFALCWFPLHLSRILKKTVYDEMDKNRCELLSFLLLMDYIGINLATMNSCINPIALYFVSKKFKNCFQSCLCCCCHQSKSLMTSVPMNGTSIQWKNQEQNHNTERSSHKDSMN
Briefly: Inhibitory effect on the binding of 125I-endothelin-1 to its receptor (rat aorta smooth muscle A7r5 cells). The settings on record: 25 pM 125I-endothelin-1, 37° C., 1 hr, read-out: IC50 binding: 50% inhibition of the specific binding of 125I-endothelin-1 to its receptor. As to the method:
Inhibitory Effect on the Binding of ^125 I-Endothelin-1 to its Receptor
Smooth muscle A7r5 cells derived from rat aorta were incubated with 25 pM ^125 I-endothelin-1 at 37° C. for 1 hr in the presence or absence of a compound (I) of the present invention. After completion of the reaction, ^125 I-endothelin-1 bound to membrane fraction was separated by filtrating through glass fiber filters and the radioactivity was determined with a gamma-counter. The specific binding was calculated by subtracting the nonspecific binding which was determined in the presence of 10^-7 M non-radioactive endothelin-1 from the total binding.

The test system of test [2] is endothelin-1-induced increase in cytosolic calcium ion concentration, rat aortic smooth muscle A7r5 cells. Briefly: Inhibition of the endothelin-1-induced increase in cytosolic calcium ion concentration in A7r5 cells. It is filed as cell-based. To be noted: fura-2, compound 1 min before 10^-8 M endothelin-1, read-out: IC50 (Ca^2+): inhibition of endothelin-1-induced increase in cytosolic calcium concentration. The method, then:
Inhibition of the Endothelin-1-induced Increase in Cytosolic Calcium Ion Concentration
To a cuvette was put a suspension of rat aortic smooth muscle A7r5 cells (Dainippon Pharmaceutical Co., Ltd.) on which 2 μM fura-2 (Dojin) has been loaded. The change in fluorescence intensity was determined with a calcium analyzer (CAF100, Nippon Bunkou Co.). In the determination, the excitation was performed at 340 nm and 380 nm and the recording at 510 nm. The cytosolic calcium concentration was calculated according to the method of Grynkiewicz et al., J. Biol. Chem., 260., pp. 3440-3450, 1985.
The experiment was carried out by adding a compound (I) of the present invention to the cell suspension in cuvette, incubating for 1 min, adding 10^-8 M endothelin-1, and measuring the change in fluorescence intensity.

Test [3] deals with T2, endothelin-1-induced contraction, isolated rat thoracic aorta (Rattus norvegicus, UniProt P26684).
T2 construct: specimens isolated from rat thoracic aorta; from tissue; host or cells: rat thoracic aorta, transverse strips
T2 sequence (P26684 21-426): T1 sequence (P26684 21-426)
Briefly: Inhibition of endothelin-1-induced contraction in isolated rat thoracic aorta. To be noted: 10^-8, 3×10^-8, 10^-7 M, 10 min, 37° C. The method, then: Inhibition of Endothelin-1-induced Contradiction in Isolated Rat Thoracic Aorta
Transverse Stip specimens isolated from rat thoracic aorta were suspended in modified Locke-Ringer solution at 37° C. while aerating with mixed gas (95% O2 +5% CO2), and the isometric tension was recorded. Four specimens derived from each rat were used in the test. Thus, three specimens were treated with compound 1c (disodium salt; prepared in Example 1 or 3) of different concentration (10^-8 M, 3×10^-8 M, and 10^-7 M) for 10 min and the rest was untreated before the measurement of isometric tension.

In test [4] the test system is endothelin-1-induced hypertension, pithed rat. Briefly: Inhibition of endothelin-1-induced hypertension in pithed rat. Type of test: in vivo. The settings on record: intravenous, dose between 0.01 and 1 mg/kg. As to the method:
Inhibition of Endothelin-1-induced Hypertension in Pithed Rat
Under ether anesthesia, a stainless-steal rod (diameter: 2 mm) was inserted from right orbital to spinal end of a rat. The resultant pithed rat was placed under artificial respiration and the change in blood pressure was recorded. Drugs (endothelin-1 and compound 1c prepared in Example 1 or 3) were administered intravenously.

Read-outs that look alike come from different tables or passages of the source.

As to `COC(=O)/C=C/C(=O)Nc1ccc(O)cc1/C=C/C(=O)OC[C@@]12CC[C@@]3(C(=O)O)CCC(C)(C)C[C@H]3C1=CCC1[C@@]3(C)CCC(=O)C(C)(C)C3CC[C@]12C` (stereo partly drawn) [Compound 1m], the IC50 in test [1] was 5 nM; in test [2] (Rattus norvegicus) it was 2.7 nM.
For `CC1(C)CC[C@]2(C(=O)O)CC[C@]3(COC(=O)/C=C/c4cc(O)ccc4NC(=O)/C=C\C(=O)O)C(=CCC4[C@@]5(C)CCC(=O)C(C)(C)C5CC[C@]43C)[C@@H]2C1` (stereo partly drawn) [Compound 1d], in that order: 3.4 nM and 3 nM.
Take `CC1(C)CC[C@]2(C(=O)O)CC[C@]3(COC(=O)/C=C/c4cc(O)ccc4NC(=O)C(=O)O)C(=CCC4[C@@]5(C)CCC(=O)C(C)(C)C5CC[C@]43C)[C@@H]2C1` (stereo partly drawn) [Compound 1g]: the IC50 came to 1.8 nM in test [1] and 2.5 nM in test [2] (Rattus norvegicus).
Turning to `CC1(C)CC[C@]2(C(=O)O)CC[C@]3(COC(=O)/C=C/c4cc(O)ccc4N)C(=CCC4[C@@]5(C)CCC(=O)C(C)(C)C5CC[C@]43C)[C@@H]2C1` (stereo partly drawn) [Compound 1a], the IC50 in test [1] amounted to 24 nM; in test [2] (Rattus norvegicus) it was 4.5 nM.
With `CC1(C)CC[C@]2(C(=O)O)CC[C@]3(COC(=O)/C=C/c4cc(O)ccc4NC(=O)CCC(=O)O)C(=CCC4[C@@]5(C)CCC(=O)C(C)(C)C5CC[C@]43C)[C@@H]2C1` (stereo partly drawn) [Compound 1e], the IC50 turned out to be 3.6 nM in test [1] and 3.5 nM in test [2] (Rattus norvegicus).
For `CC1(C)CC[C@]2(C(=O)O)CC[C@]3(COC(=O)/C=C/c4ccc(O)c(O)c4)C(=CCC4[C@@]5(C)CCC(=O)C(C)(C)C5CC[C@]43C)[C@@H]2C1` (stereo partly drawn) [Compound 50-235, reference compound], in that order: 76 nM and 10 nM.
As to `CC1(C)CC[C@]2(C(=O)O)CC[C@]3(COC(=O)/C=C/c4cc(O)ccc4NCC(=O)O)C(=CCC4[C@@]5(C)CCC(=O)C(C)(C)C5CC[C@]43C)[C@@H]2C1` (stereo partly drawn) [Compound 1n], the IC50 in test [1] and in test [2] (Rattus norvegicus) was 3 nM each time.
As to `CC1(C)CC[C@]2(C(=O)O)CC[C@]3(COC(=O)/C=C/c4cc(O)ccc4NC(=O)/C=C/C(=O)O)C(=CCC4[C@@]5(C)CCC(=O)C(C)(C)C5CC[C@]43C)[C@@H]2C1` (single isomer, unassigned) [Compound 1c], the IC50 in test [1] was found to be 0.7 nM; in test [2] it was 2.6 nM. Also, the “shift of endothelin-1 concentration-contraction curve” value in test [3] was “shifts the concentration-contradiction curve to right in a concentration-dependent manner”. Besides, the Kb in test [3] (read-out: pA2 value, endothelin-1 concentration-contraction curve (converted)) was 1.58 nM. In addition, the “decrease of blood pressure” value in test [4] is reported as “decreased the blood pressure in a dose-dependent manner”.
As to `CC1(C)CC[C@]2(C(=O)O)CC[C@]3(COC(=O)/C=C/c4cc(O)ccc4NC(=O)CCCC(=O)O)C(=CCC4[C@@]5(C)CCC(=O)C(C)(C)C5CC[C@]43C)[C@@H]2C1` (stereo partly drawn) [Compound 1i], the IC50 in test [1] was 6.6 nM; in test [2] (Rattus norvegicus), 4.6 nM.
On to `CC1(C)CC[C@]2(C(=O)O)CC[C@]3(COC(=O)/C=C/c4cc(O)ccc4NC(=O)/C=C/C(=O)O)C(=CCC4[C@@]5(C)CCC(=O)C(C)(C)C5CC[C@]43C)[C@@H]2C1` (single isomer, unassigned) [Compound 1b], for which the IC50 in test [1] was 0.5 nM; in test [2] (Rattus norvegicus), 2.6 nM.
Take `CC1(C)CC[C@]2(C(=O)O)CC[C@]3(COC(=O)/C=C/c4cc(O)ccc4NS(=O)(=O)O)C(=CCC4[C@@]5(C)CCC(=O)C(C)(C)C5CC[C@]43C)[C@@H]2C1` (stereo partly drawn) [Compound 1k]: the IC50 in test [1] was 2.9 nM; in test [2] (Rattus norvegicus) it was 2.8 nM.
With `CC1(C)CC[C@]2(C(=O)O)CC[C@]3(COC(=O)/C=C/c4cc(O)ccc4NC(=O)CC(=O)O)C(=CCC4[C@@]5(C)CCC(=O)C(C)(C)C5CC[C@]43C)[C@@H]2C1` (stereo partly drawn) [Compound 1h], the values for the IC50 in test [1] and in test [2] (Rattus norvegicus) were 9 nM and 5.6 nM, respectively.

The values are drawn from patent US5463107A, “Triterpene derivatives and endothelin-receptor antagonists containing the same” (Shionogi & Co., Ltd., priority 1993, dated 1995).
